For 1 compound, remaining activity results are on record in publication PMC6723908, “OCTN2-Mediated Acetyl-L-Carnitine Transport in Human Pulmonary Epithelial Cells In Vitro” (Pharmaceutics, 2019).

The experiment has as its target T1, OCTN2 (Homo sapiens, UniProt O76082).
T1 construct: gene SLC22A5
T1 sequence (O76082 1-557): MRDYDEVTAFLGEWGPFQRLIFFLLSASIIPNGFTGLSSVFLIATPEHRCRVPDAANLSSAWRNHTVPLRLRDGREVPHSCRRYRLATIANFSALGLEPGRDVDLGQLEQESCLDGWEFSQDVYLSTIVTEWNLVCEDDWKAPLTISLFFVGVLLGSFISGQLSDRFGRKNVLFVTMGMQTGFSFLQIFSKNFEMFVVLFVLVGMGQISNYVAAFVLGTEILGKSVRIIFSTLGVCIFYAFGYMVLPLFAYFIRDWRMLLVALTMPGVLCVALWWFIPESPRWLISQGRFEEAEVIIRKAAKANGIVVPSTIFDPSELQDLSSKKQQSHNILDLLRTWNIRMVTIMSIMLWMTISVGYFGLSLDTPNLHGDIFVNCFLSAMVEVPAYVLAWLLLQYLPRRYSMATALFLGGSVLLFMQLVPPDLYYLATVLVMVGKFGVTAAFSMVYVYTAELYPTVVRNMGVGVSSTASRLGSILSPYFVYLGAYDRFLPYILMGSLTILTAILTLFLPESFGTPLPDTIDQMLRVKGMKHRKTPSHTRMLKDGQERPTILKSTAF
Put plainly: inhibition of [3H]-acetyl-L-carnitine uptake in ATI-like and A549 cells at […] (uptake reduced to […] in A549). The class given is cell-based. As to conditions: read-out: % of control uptake at 500 μM.

With `C[N+](C)(C)C[C@@H](O)CC(=O)[O-]` [D-carnitine], the remaining activity at 500 µM came to 25.8 ± 1.3%.
